Test results reported in patent publication US10363239B2, “Method for inhibiting growth of cancer cells” (Pain Therapeutics, Inc., priority 2013, dated 2019).

Molecular target: biotinylated pentapeptide (Bn-VAKGL) of SEQ ID NO: 1 (Homo sapiens, UniProt P21333)
Experiment: Inhibition of [3H]NLX binding to biotinylated pentapeptide (Bn-VAKGL)
Details: read-out: IC50, inhibition of [3H]NLX binding to Bn-VAKGL; single affinity state
Excerpt: Data are derived from 6 studies, each using a different set of A7 cells.

O=C1CC[C@@]2(O)[C@H]3Cc4ccc(O)c5c4[C@@]2(CCN3CC2CC2)[C@H]1O5 [Naltrexone]
IC50: 0.043 nM
